Read-outs that look alike come from different tables or passages of the source.

The values below come from US5614623A, “Diastereomers of 1-(isopropoxycarbonyloxy)ethyl 3-cephem-4-carboxylate and processes for their preparation” (Hoechst Aktiengesellschaft, priority 1991, dated 1997).

For series [1] the following is noted: diastereomers; T. Nishimura et al., The Journal of Antibiotics 40, 81-90 (1987); cited from earlier work.
Series [2] is described as follows: recovery rate of the cephalosporin with free carboxyl group in the urine of dogs after oral administration of the diastereomeric prodrug ester (enteral absorption). It is filed as in vivo. The settings on record: for bioavailability: comparison between the diastereomers / with the diastereomer mixture of cefpodoxime proxetil.
The nature of series [3]: stability under the conditions of column chromatography. It is filed as physicochemical. The settings on record: both diastereomers and the diastereomer mixture.
Series [4] deals with enzymes endogenous to the body. The settings on record: after absorption, by enzymes endogenous to the body; cited from earlier work.
For series [5] the following is noted: various animal species and man; cited from earlier work.

As to `CC(OC(=O)OC1CCCCC1)OC(=O)C1=C(CSc2nnnn2CCN(C)C)CS[C@@H]2[C@H](NC(=O)Cc3csc(N)n3)C(=O)N12` (stereo partly shown) [cefotiam hexetil], the “effect of configuration in the 1-position on the level of enteral absorption” value in series [1] was “no effect on the level of enteral absorption”.
For `COCC1=C(C(=O)OC(C)OC(=O)OC(C)C)N2C(=O)[C@@H](NC(=O)/C(=N\OC)c3csc(N)n3)[C@H]2SC1` (single isomer, unassigned; diastereomer b) [Example 8], in series [2] (as shown in Table 1), the enteral absorption entry is recorded as “increased enteral absorption”. Also, the bioavailability result in series [2] (listed as the more absorbable diastereomer) is on record as “higher bioavailability than the diastereomer mixture”; in series [2] (listed as the more polar of the two diastereomers), “higher bioavailability”.
Consider `COCC1=C(C(=O)OC(C)OC(=O)OC(C)C)N2C(=O)[C@@H](NC(=O)/C(=N\OC)c3csc(N)n3)[C@H]2SC1` (mixture of isomers) [cefpodoxime proxetil, 1-(Isopropoxycarbonyloxy)ethyl (6R, 7R)-7-[2-(2-aminothiazol-4-yl)-2-(Z)-(methoxyimino)acetamido]-3-methoxymethyl-3-cephem-4-carboxylate (diastereomer mixture, Cefpodoxime Proxetil)], for which the stability result in series [3] is “unstable”. The “cleavage to the antibiotically active cephalosporin having a free carboxyl group” value in series [4] was “rapidly and completely cleaved”. Also, the enteral absorption entry in series [5] is given as “readily enterally absorbed”.
